A short description of data set [1]: Solid-liquid equilibrium temperature. The note with it: 101.3 kPa, DSC.
Data set [2] is described as follows: Molar enthalpy of transition or fusion. The note with it: DSC.
The conditions of data set [3]: 298 K; 101.33 kPa; Crystal 2; X-ray diffraction.

Structures are written as SMILES. Numbers after ± are expanded uncertainties.

This note sets out measurements from the NIST ThermoML archive (doi:10.1016/j.jct.2011.11.023).

As a reminder, the mass density is the mass of a sample divided by its volume.

For `O=C(O)c1cccnc1` [3-carboxylpyridine], the results for the Solid-liquid equilibrium temperature in data set [1] (Crystal 1) and in data set [1] (Crystal 2) were 507 ± 2 K and 453.6 ± 0.3 K, respectively. Besides, the entries for the “Molar enthalpy of transition or fusion” value in data set [2] (Crystal 1) and in data set [2] (Crystal 2) were 6.62 ± 0.191 kcal/mol and 0.308 ± 0.0311 kcal/mol, respectively. The mass density in data set [3] amounted to 1471 ± 2 kg/m3.
